# Several values for one entry are separate records, joined by “and”; a condition that tells them apart may be missing. Equal values may be shown once.
# What was measured:
# Single dose PK, rat = format: in vivo; settings: Rat oral 10 mg/kg single dose
# Source text: Several studies have been conducted to evaluate the PK properties of SRA737, such as the absorption (in vitro permeability assays and in vivo PK following IV and oral administration), distribution (in vivo tissue distribution and in vitro plasma protein binding) and metabolism (in vitro hepatocyte and CYP inhibition and induction studies) of SRA737.
# The PK of SRA737 have been determined in the mouse, rat, dog and monkey following oral and IV administration (Table 3). […] An acceptable terminal elimination t1/2 was also observed in each species. […] The plasma protein binding of SRA737 at 1 and 10 μM was examined in mouse, minipig, monkey and human plasma using ultracentrifugation and in dog plasma (10 μM) using rapid equilibrium dialysis.
# [1] = SRA737 monotherapy clinical study (SRA737-01), pharmacokinetics; format: in vivo, human
# Experimental: A Phase 1 clinical trial was conducted in ‘all comers,’ i.e. no genetic selection was performed, to establish safety, tolerability and pharmacokinetics (“Dose Escalation Phase”). Cohorts consisting initially of a single subject received escalating doses of SRA737, starting in Cohort 1 with 20 mg/day administered orally on a continuous daily dosing schedule in 28 day cycles. the dose was escalated until the maximum tolerated dose (MTD) was identified.
# Cmin was calculated at 1000 mg QD (411 ng/mL) and exceeded that determined in preclinical models to be effective. Doses ≥300 mg QD also exceeded the preclinical models to be effective.
# A Dose Escalation phase employed an accelerated titration design starting at 20 mg SRA737, administered QD orally in 28-day cycles. Incremental dose escalations in single-subject cohorts were followed by a rolling-6 design once SRA737-related ≥Grade 2 toxicity was observed during Cycle 1.
# The plasma pharmacokinetics of SRA737 were reproducible and generally dose concordant. […] All doses ≥300 mg QD also exceeded this threshold level.
# [2] = tested on: genetically defined tumors (HGSOC, CRC, mCRPC, NSCLC, SCCHN, SCCA); test: SRA737 monotherapy clinical study (SRA737-01), anti-tumor activity per RECIST v1.1; format: in vivo, human
# Experimental: An in-human clinical trial is conducted to confirm efficacy of SRA737 monotherapy methods of treatment and patient selection strategies disclosed herein for prospectively-selected genetically-defined subjects with tumor types known to have a high prevalence of genomic alterations expected to sensitize the tumor to Chk1 inhibition (“Cohort Expansion Phase”). The Cohort Expansion Phase consists of 6 indication-specific expansion cohorts of approximately 20 prospectively-selected genetically-defined subjects each. The cohorts are subjects with previously treated metastatic colorectal cancer [CRC], high grade serous ovarian cancer [HGSOC] without CCNE1 gene amplification, HGSOC with CCNE1 gene amplification (or alternative genetic alteration with similar functional effect), metastatic castration-resistant prostate cancer [mCRPC], advanced non-small cell lung cancer [NSCLC], and squamous cell carcinoma of the head and neck [HNSCC], or squamous cell carcinoma of the anus [SCCA]. Subjects are initially administered SRA737 following the dosing regimen established in Example 4. The dosing regimen in some cases changes during the course of the trial.
# All subjects who have measurable disease, receive at least one cycle of SRA737 and have a baseline plus at least 1 post-baseline assessment of disease are evaluable for response. Subjects who develop clear evidence of PD without a formal disease assessment and those without a formal disease assessment before study withdrawal are considered non-responders. Complete responses and PRs are required to be confirmed by a subsequent assessment at least 4 weeks later. Stable Disease (SD) determination requires that the relevant criteria be met at least once, a minimum of 6 weeks after the initial dose of SRA737 is given.
# Response criteria are defined below: • a. Complete Response (CR): Disappearance of all target lesions. Any pathological lymph nodes (whether target or non-target), in general, have reduction in short axis to <10 mm. • b. Partial Response (PR): At least a 30% decrease in the sum of diameters of target lesions, taking as reference the baseline sum diameters. • c. Progressive Disease (PD): At least a 20% increase in the sum of diameters of target lesions, taking as reference the smallest sum on study (this includes the baseline sum if that is the smallest on study). […] (Note: the appearance of one or more new lesions is also considered progression). • d. Stable Disease (SD): Neither sufficient shrinkage to qualify for PR nor sufficient increase to qualify for PD, taking as reference the smallest sum diameters while on study.
# The Cohort Expansion phase was contemporaneously initiated when circulating plasma concentrations of SRA737 exceeded the minimum effective concentration of SRA737 modelled from murine efficacy studies. Thereafter, experience gained in the ongoing Dose Escalation phase informed dose selection for expansion cohorts. The Cohort Expansion phase enrolled subjects with genetically defined tumors that harbored genomic alterations hypothesized to confer sensitivity to Chk1 inhibition, which were prospectively selected by next-generation sequencing (FoundationOne). Subjects with the following tumors were eligible for enrollment: ia) high grade serous ovarian cancer (HGSOC), ib) HGSOC putatively enriched for CCNE1 gene network amplification, ii) colorectal cancer (CRC), iii) metastatic castration-resistant prostate cancer (mCRPC), iv) non-small cell lung cancer (NSCLC), and v) squamous cell carcinomas (head and neck (SCCHN); anus (SCCA)).
# Preliminary anti-tumor activity was assessed by target tumor response and overall response in accordance with RECIST v1.1.
# [3] = FA/BRCA gene network alterations
smiles,measurement,setting,value
"N#Cc1cnc(Nc2cc(NCC3CNCCO3)c(C(F)(F)F)cn2)cn1 (centres unmarked) [SRA737, 5-[[4-[[morpholin-2-yl]methylamino]-5-(trifluoromethyl)-2-pyridyl]amino]pyrazine-2-carbonitrile]",Foral,"Single dose PK, rat",42%
same,CL/F,"[1]; human, in vivo, 160 mg",70.0 L/h
same,Vd/F,"[1]; human, in vivo, 160 mg",1390 L
same,CL/F,"[1]; human, in vivo, 300 mg",81.9 L/h
same,Vd/F,"[1]; human, in vivo, 300 mg",1020 L
same,t1/2,"[1]; human, in vivo, 300 mg",8.6 h
same,CL/F,"[1]; human, in vivo, 600 mg",56.9 L/h
same,Vd/F,"[1]; human, in vivo, 600 mg",1090 L
same,AUC(0-t),"[1]; human, in vivo, 800 mg",18500 ng·h/mL
same,CL/F,"[1]; human, in vivo, 800 mg",39.1 L/h
same,Cmax,"[1]; human, in vivo, 800 mg",1880 ng/mL
same,Vd/F,"[1]; human, in vivo, 800 mg",596 L
same,t1/2,"[1]; human, in vivo, 800 mg",10.5 h
same,AUC0-24 h,"[1]; human, in vivo, 1000 mg",20270 ng·h/mL
same,CL/F,"[1]; human, in vivo, 1000 mg",44.9 L/h
same,Cmax,"[1]; human, in vivo, 1000 mg",2098 ng/mL
same,Vd/F,"[1]; human, in vivo, 1000 mg",704 L
same,CL/F,"[1]; human, in vivo, 1300 mg",38.6 L/h
same,Vd/F,"[1]; human, in vivo, 1300 mg",625 L
same,doses at which Cmin exceeded that effective in preclinical models,[1]; monotherapy,≥ 300 mg QD
same,Cmin,[1]; monotherapy PK dose 160 mg (n = 1),31.7 ng/mL
same,Cmin,[1]; monotherapy PK dose 300 mg (n = 1),41.2 ng/mL
same,Cmin,[1]; monotherapy PK dose 600 mg (n = 4),129 ng/mL
same,Cmin,[1]; monotherapy PK dose 800 mg (n = 38),234 ng/mL
same,Cmin,[1]; monotherapy PK dose 1000 mg (n = 44-45),289 ng/mL
same,Cmin,[1]; monotherapy PK dose 1300 mg (n = 3),466 ng/mL
same,confirmed RECIST partial or complete response,[2],no subject had a confirmed RECIST partial or complete response
same,responses of subjects with unambiguously positive CCNE1 amplification,[2]; 4/24 HGSOC subjects,3 SD and 1 Progressive Disease (PD)
same,subjects with best overall response of SD,[2]; 107 subjects treated,34 (32%) n (%)
same,DCR,[2]; CCNE gene network alterations,67%
same,DCR,[2]; [3],71%
same,DOS,[2]; [3],3.8 cycles
same,Disease Control Rate (DCR),[2]; HGSOC cohort,54%
same,maximal target tumor decreases,[2]; HGSOC subjects,27% and 29%
same,anti-tumor activity by tumor type,"[2]; HGSOC, CRC, mCRPC and NSCLC tumors",Anti-tumor activity was observed
same,DCR,"[2]; PI3K gene network alterations (PIK3CA, AKT, PTEN)",77%
same,PDs,[2]; RAS network mutations,15/20
same,duration on study (DOS),[2]; RAS network mutations,2 cycles
same,overall average tumor % change,[2]; RAS network mutations,+20%
same,DCR,[2]; activating mutations in the RAS network,25%
same,subjects with durable stable disease (SD) lasting ≥4 months,[2]; data cut off 3 May 2019,22 (21%) n (%)
